Reference: patent US9914731B2, “Pyrazolo[1,5-a]pyridine derivatives and methods of their use” (Ignyta, Inc., priority 2013, dated 2018)
Where two headings read alike, the source gives them in different places.

What was measured:
[1] = biological target: recombinant human baculovirus-expressed cMET (Homo sapiens (Human), UniProt P08581); test: c-MET kinase assay (HTRF KinEASE); format: biochemical; conditions: read-out: c-MET IC50
[2] = biological target: recombinant human baculovirus-expressed AXL (Homo sapiens (Human), UniProt P30530); test: AXL kinase assay (HTRF KinEASE); format: biochemical; conditions: average of two or more determinations
[3] = average of two or more determinations

CCn1cc(C(=O)Nc2ccc(Oc3cc(-c4cnsc4)cn4nccc34)c(F)c2)c(=O)n(-c2ccc(F)cc2)c1=O [Example 54, 1-Ethyl-3-(4-fluoro-phenyl)-2,4-dioxo-1,2,3,4-tetrahydro-pyrimidine-5-carboxylic acid[3-fluoro-4-(6-isothiazol-4-yl-pyrazolo[1,5-a]pyridin-4-yloxy)-phenyl]-amide]
IC50 [1, 3]: < 10 nM
IC50 [2]: < 10 nM

O=C(Nc1ccc(Oc2cc(-c3cn[nH]c3)cn3nccc23)c(F)c1)c1cccn(-c2ccc(F)cc2)c1=O [Example 42, 1-(4-Fluoro-phenyl)-2-oxo-1,2-dihydro-pyridine-3-carboxylic acid {3-fluoro-4-[6-(1H-pyrazol-4-yl)-pyrazolo[1,5-a]pyridine-4-yloxy]-phenyl}-amide]
IC50 [1, 3]: < 10 nM
IC50 [2]: < 10 nM

Cn1cnc(-c2cc(Oc3ccc(NC(=O)c4c[nH]c(=O)n(-c5ccc(F)cc5)c4=O)cc3F)c3ccnn3c2)c1 [Example 107, 3-(4-Fluoro-phenyl)-2,4-dioxo-1,2,3,4-tetrahydro-pyrimidine-5-carboxylic acid{3-fluoro-4-[6-(1-methyl-1H-imidazol-4-yl)-pyrazolo[1,5-a]pyridin-4-yloxy]-phenyl}-amide]
IC50 [1, 3]: < 10 nM
IC50 [2]: < 10 nM

Cc1ccc(C(=O)Nc2ccc(Oc3cc(-c4cnco4)cn4nccc34)c(F)c2)c(=O)n1-c1ccc(F)cc1 [Example 51, 1-(4-Fluoro-phenyl)-6-methyl-2-oxo-1,2-dihydro-pyridine-3-carboxylic acid [3-fluoro-4-(6-oxazol-5-yl-pyrazolo[1,5-a]pyridin-4-yloxy)-phenyl]-amide]
IC50 [1, 3]: < 10 nM
IC50 [2]: < 10 nM

Cc1ccc(C(=O)Nc2ccc(Oc3cc(N4CCC(=O)CC4)cn4nccc34)c(F)c2)c(=O)n1-c1ccc(F)cc1 [Example 59, 1-(4-Fluoro-phenyl)-6-methyl-2-oxo-1,2-dihydro-pyridine-3-carboxylic acid {3-fluoro-4-[6-(4-oxo-piperidin-1-yl)-pyrazolo[1,5-a]pyridin-4-yloxy]-phenyl}-amide]
IC50 [1, 3]: 10 to 100 nM
IC50 [2]: < 10 nM

CC(C)n1cc(C(=O)Nc2ccc(Oc3cc(-c4cn(C)cn4)cn4nccc34)cn2)c(=O)n(-c2ccc(F)cc2)c1=O [Example 124, 3-(4-Fluoro-phenyl)-1-isopropyl-2,4-dioxo-1,2,3,4-tetrahydro-pyrimidine-5-carboxylic acid {5-[6-(1-methyl-1H-imidazol-4-yl)-pyrazolo[1,5-a]pyridin-4-yloxy]-pyridin-2-yl}-amide]
IC50 [1, 3]: < 10 nM
IC50 [2]: < 10 nM

O=C(Nc1ccc(Oc2cc(-c3ccncc3)cn3nccc23)c(F)c1)c1cccn(-c2ccc(F)cc2)c1=O [Example 27, 1-(4-Fluoro-phenyl)-2-oxo-1,2-dihydro-pyridine-3-carboxylic acid [3-fluoro-4-(6-pyridin-4-yl-pyrazolo[1,5-a]pyridin-4-yloxy)-phenyl]-amide]
IC50 [1, 3]: < 10 nM
IC50 [2]: < 10 nM

CC(C)n1cc(C(=O)Nc2ccc(Oc3cc(-c4cn(C)cn4)cn4nccc34)c(F)c2)c(=O)n(-c2ccc(F)cc2)c1=O [Example 94, 3-(4-Fluoro-phenyl)-1-isopropyl-2,4-dioxo-1,2,3,4-tetrahydro-pyrimidine-5-carboxylic acid {3-fluoro-4-[6-(1-methyl-1H-imidazol-4-yl)-pyrazolo[1,5-a]pyridin-4-yloxy]-phenyl}-amide]
IC50 [1, 3]: < 10 nM
IC50 [2]: < 10 nM

O=C(Nc1ccc(Oc2cc(-c3cccnc3)cn3nccc23)c(F)c1)c1cccn(-c2ccc(F)cc2)c1=O [Example 25, 1-(4-Fluoro-phenyl)-2-oxo-1,2-dihydro-pyridine-3-carboxylic acid 3-fluoro-4-(6-pyridin-3-yl-pyrazolo[1,5-a]pyridin-4-yloxy)-phenyl-amide]
IC50 [1, 3]: < 10 nM
IC50 [2]: < 10 nM

CCn1cc(C(=O)Nc2ccc(Oc3cc(-c4cn(C)cn4)cn4nccc34)cc2)c(=O)n(-c2ccc(F)cc2)c1=O [Example 113, 1-Ethyl-3-(4-fluoro-phenyl)-2,4-dioxo-1,2,3,4-tetrahydro-pyrimidine-5-carboxylic acid {4-[6-(1-methyl-1H-imidazol-4-yl)-pyrazolo[1,5-a]pyridin-4-yloxy]-phenyl}-amide]
IC50 [1, 3]: < 10 nM
IC50 [2]: < 10 nM

O=C(Nc1ccc(Oc2cc(N3CCC(O)CC3)cn3nccc23)c(F)c1)c1cccn(-c2ccc(F)cc2)c1=O [Example 68, 1-(4-Fluoro-phenyl)-2-oxo-1,2-dihydro-pyridine-3-carboxylic acid{3-fluoro-4-[6-(4-hydroxy-piperidin-1-yl)-pyrazolo[1,5-a]pyridin-4-yloxy]-phenyl}-amide]
IC50 [1, 3]: < 10 nM
IC50 [2]: < 10 nM

CCn1cc(C(=O)Nc2ccc(Oc3cc(-c4cnn(C)c4)cn4nccc34)c(F)c2)c(=O)n(-c2ccc(F)cc2)c1=O [Example 33, 1-Ethyl-3-(4-fluoro-phenyl)-2,4-dioxo-1,2,3,4-tetrahydro-pyrimidine-5-carboxylic acid {3-fluoro-4-[6-(1-methyl-1H-pyrazol-4-yl)-pyrazolo[1,5-a]pyridin-4-yloxy]-phenyl}-amide]
IC50 [1, 3]: < 10 nM
IC50 [2]: < 10 nM

COC(=O)Nc1cc(Oc2ccc(NC(=O)c3cn(C(C)C)c(=O)n(-c4ccc(F)cc4)c3=O)cc2F)c2ccnn2c1 [Example 149, [4-(2-Fluoro-4-{[3-(4-fluoro-phenyl)-1-isopropyl-2,4-dioxo-1,2,3,4-tetrahydro-pyrimidine-5-carbonyl]-amino}-phenoxy)-pyrazolo[1,5-a]pyridin-6-yl]-carbamic acid methyl ester]
IC50 [1, 3]: 10 to 100 nM
IC50 [2]: < 10 nM

1-Ethyl-3-(4-fluoro-phenyl)-2,4-dioxo-1,2,3,4-tetrahydro-pyrimidine-5-carboxylic acid {3-fluoro-4-[6-(1H-pyrazol-3-yl)-pyrazolo[1,5-a]pyridin-4-yloxy]-phenyl}-amide [Example 40]
IC50 [1, 3]: < 10 nM
IC50 [2]: < 10 nM

Cc1[nH]ncc1-c1cc(Oc2ccc(NC(=O)c3cccn(-c4ccc(F)cc4)c3=O)cc2F)c2ccnn2c1 [Example 44, 1-(4-Fluoro-phenyl)-2-oxo-1,2-dihydro-pyridine-3-carboxylic acid{3-fluoro-4-[6-(5-methyl-1H-pyrazol-4-yl)-pyrazolo[1,5-a]pyridin-4-yloxy]-phenyl}-amide]
IC50 [1, 3]: < 10 nM
IC50 [2]: < 10 nM

CCn1cc(C(=O)Nc2ccc(Oc3cc(-c4cscn4)cn4nccc34)c(F)c2)c(=O)n(-c2ccc(F)cc2)c1=O [Example 101, 1-Ethyl-3-(4-fluoro-phenyl)-2,4-dioxo-1,2,3,4-tetrahydro-pyrimidine-5-carboxylic acid[3-fluoro-4-(6-thiazol-4-yl-pyrazolo[1,5-a]pyridin-4-yloxy)-phenyl]-amide]
IC50 [1, 3]: < 10 nM
IC50 [2]: < 10 nM

CCn1cc(C(=O)Nc2ccc(Oc3cc(NC(C)=O)cn4nccc34)c(F)c2)c(=O)n(-c2ccc(F)cc2)c1=O [Example 142, 1-Ethyl-3-(4-fluoro-phenyl)-2,4-dioxo-1,2,3,4-tetrahydro-pyrimidine-5-carboxylic acid[4-(6-acetylamino-pyrazolo[1,5-a]pyridin-4-yloxy)-3-fluoro-phenyl]-amide]
IC50 [1, 3]: < 10 nM
IC50 [2]: < 10 nM

CCOCCn1cc(C(=O)Nc2ccc(Oc3cc(-c4cnn(C)c4)cn4nccc34)c(F)c2)c(=O)n(-c2ccc(F)cc2)c1=O [Example 31, 1-(2-Ethoxy-ethyl)-3-(4-fluoro-phenyl)-2,4-dioxo-1,2,3,4-tetrahydro-pyrimidine-5-carboxylic acid {3-fluoro-4-[6-(1-methyl-1H-pyrazol-4-yl)-pyrazolo[1,5-a]pyridin-4-yloxy]-phenyl}-amide]
IC50 [1, 3]: < 10 nM
IC50 [2]: < 10 nM

Cc1cc(NC(=O)c2cn(C(C)C)c(=O)n(-c3ccc(F)cc3)c2=O)ccc1Oc1cc(-c2cn(C)cn2)cn2nccc12 [Example 110, 3-(4-Fluoro-phenyl)-1-isopropyl-2,4-dioxo-1,2,3,4-tetrahydro-pyrimidine-5-carboxylic acid{3-methyl-4-[6-(1-methyl-1H-imidazol-4-yl)-pyrazolo[1,5-a]pyridin-4-yloxy]-phenyl}-amide]
IC50 [1, 3]: 10 to 100 nM
IC50 [2]: < 10 nM

Cn1cnc(-c2cc(Oc3ccc(NC(=O)c4cccn(-c5ccc(F)cc5)c4=O)cc3F)c3ccnn3c2)c1 [Example 88, 1-(4-Fluoro-phenyl)-2-oxo-1,2-dihydro-pyridine-3-carboxylic acid {3-fluoro-4-[6-(1-methyl-1H-imidazol-4-yl)-pyrazolo[1,5-a]pyridin-4-yloxy]-phenyl}-amide]
IC50 [1, 3]: < 10 nM
IC50 [2]: < 10 nM

Cc1ccc(C(=O)Nc2ccc(Oc3cc(-c4cn(C)cn4)cn4nccc34)c(F)c2)c(=O)n1-c1ccc(F)cc1 [Example 91, 1-(4-Fluoro-phenyl)-6-methyl-2-oxo-1,2-dihydro-pyridine-3-carboxylic acid {3-fluoro-4-[6-(1-methyl-1H-imidazol-4-yl)-pyrazolo[1,5-a]pyridin-4-yloxy]-phenyl}-amide]
IC50 [1, 3]: < 10 nM
IC50 [2]: < 10 nM

COc1ccc(-c2cc(Oc3ccc(NC(=O)c4cccn(-c5ccc(F)cc5)c4=O)cc3F)c3ccnn3c2)cn1 [Example 35, 1-(4-Fluoro-phenyl)-2-oxo-1,2-dihydro-pyridine-3-carboxylic acid {3-fluoro-4-[6-(6-methoxy-pyridin-3-yl)-pyrazolo[1,5-a]pyridin-4-yloxy]-phenyl}-amide]
IC50 [1]: < 10 nM

CC(C)n1cc(C(=O)Nc2ccc(Oc3cc(N4CCC(F)(F)C4)cn4nccc34)c(F)c2)c(=O)n(-c2ccc(F)cc2)c1=O [Example 71, 3-(4-Fluoro-phenyl)-1-isopropyl-2,4-dioxo-1,2,3,4-tetrahydro-pyrimidine-5-carboxylic acid{4-[6-(3,3-difluoro-pyrrolidin-1-yl)-pyrazolo[1,5-a]pyridin-4-yloxy]-3-fluoro-phenyl}-amide]
IC50 [1, 3]: 10 to 100 nM

O=C(Nc1ccc(Oc2cccn3ncc(Cl)c23)c(F)c1)c1cccn(-c2ccc(F)cc2)c1=O [Example 23, 1-(4-Fluoro-phenyl)-2-oxo-1,2-dihydro-pyridine-3-carboxylic acid [4-(3-chloro-pyrazolo[1,5-a]pyridin-4-yloxy)-3-fluoro-phenyl]-amide]
IC50 [1, 3]: 101 to 1000 nM
